Values of other authors, collected in publication PMC6276840, “Challenges and Opportunities of Nanotechnology as Delivery Platform for Tocotrienols in Cancer Therapy” (Frontiers in Pharmacology, 2018).
Each block holds one molecule with its values, some of them ahead of it.

Legend:
MCF-7 = MCF-7 cells; ref Alayoubi et al., 2013
MDA-MB-231 = MDA-MB-231 cells; ref Alayoubi et al., 2013
[1] = set-up: method as in Yap et al., 2003; conditions: rats; ref Yap et al., 2003
[2] = set-up: method as in Lorusso et al., 2007; Rafiyath et al., 2012; Rom et al., 2014; conditions: when delivered in liposomes; ref Lorusso et al., 2007; Rafiyath et al., 2012; Rom et al., 2014

Compound: CCC(C)(C)C(=O)O[C@H]1C[C@@H](C)C=C2C=C[C@H](C)[C@H](CC[C@@H]3C[C@@H](O)CC(=O)O3)[C@H]21 [simvastatin]
IC50 (MCF-7): 19 µM
IC50 (MDA-MB-231): 8 µM

Compound: CC(C)=CCC/C(C)=C/CC/C(C)=C/CC[C@]1(C)CCc2cc(O)c(C)c(C)c2O1 [γ-tocotrienol]
absolute oral bioavailability [1]: less than 10%

Compound: COc1cccc2c1C(=O)c1c(O)c3c(c(O)c1C2=O)C[C@@](O)(C(=O)CO)C[C@@H]3O[C@H]1C[C@H](N)[C@H](O)[C@H](C)O1 [doxorubicin]
cardiotoxicity [2]: markedly reduced
hematological toxicity and palmar–plantar erythrodysesthesia [2]: increased incidence

Now from value to molecule:

absolute oral bioavailability [1]: less than 10%
Compound: CC(C)=CCC/C(C)=C/CC/C(C)=C/CC[C@]1(C)CCc2cc(O)cc(C)c2O1 [δ-tocotrienol]

absolute oral bioavailability [1]: less than 30%
Compound: CC(C)=CCC/C(C)=C/CC/C(C)=C/CC[C@]1(C)CCc2c(C)c(O)c(C)c(C)c2O1 [α-tocotrienol]
